A word on the ED50: it is the dose at which the effect has come halfway, by size or by number of responders.

Each structure is given as a SMILES string.

For this assay, the system named is LPS-induced TNFα production. As to the kind of experiment: LPS-induced TNFα production in rats. In kind it is in vivo. Particulars: Rattus norvegicus, po, pretreated orally. The procedure:
Male Lewis rats (180-200 g) from Charles River Breeding Laboratories (Portage) ACUC Protocol#05051 were pretreated orally with compound or vehicle. After a determined pretreatment time, the rats were given LPS (lipopolysaccharide from Escherichia coli Serotype 055-B5, Sigma Chemical Co., St Louis, Mo.) 30 μg/rat in 0.5 ml saline, intraperitoneally. The rats were euthanized by CO2 inhalation 90 minutes after the LPS injection and blood samples were collected by cardiac puncture, transferred into heparinized tubes and stored on ice. The blood samples were centrifuged at 2000 rpm for 10 minutes and the plasma collected for analysis by specific ELISA for TNFα levels.
The plasma samples were assayed for TNFα according to manufactures specifications. TNFα levels were expressed as pg/ml. Elisa kits were purchased from R&D Systems Inc. (Rat TNFα Quantikine Kit Catalog#RTA00).

On to `O=S(=O)(NCCO)c1ccc(-c2ccnc3[nH]c(C4CC4)cc23)cc1` [Example 145a, 4-(2-Cyclopropyl-1H-pyrrolo[2,3-b]pyridin-4-yl)-N-(2-hydroxyethyl)-benzenesulfonamide], for which the 50% effective dose (ED50) is less than 20 mg/kg.

The record behind these values is US20080146606A1, “NOVEL COMPOUNDS” (priority 2006, published 2008).
